# Patent US20250340510A1, “Substituted Phenylbenzenesulfonamide Derivatives and Uses Thereof” (Nine Square Therapeutics Corporation, priority 2022, published 2025)
# pEC50: −log10 of the molar value.
# Molecular target: TRPML1 (Homo sapiens, UniProt Q9GZU1)
# Assay: Calcium flux in HEK293 overexpressing TRPML1 plasma membrane variant (FLIPR, Calcium 6 dye)
# Assay type: cell-based
# Settings: HEK293/TRPML1-PM clone A5 cells; 4-parameter logistic fit; read-out: TRPML1 calcium flux (FLIPR) dose response: EC50
# From the text: Example B1. Calcium Flux in HEK293 Overexpressing TRPML1 Plasma Membrane Variant—Calcium 6 Dye
# Cells: HEK293/TRPML1-PM clone A5, clonal cell line containing mutant TRPML1 (both N- and C-terminal dileucine targeting motifs deleted) that localizes to the plasma membrane
# Plates: Perkin Elmer Viewplate cat. #6007460, black optically clear, tissue culture treated 384-well plate
# Calcium dye: Molecular Devices FLIPR Calcium 6 Assay Kit, cat. #R8190 or Fluo-4 Direct from Thermo Fisher, cat. #F10471
# Tips: Molecular Devices 384-well FLIPR Tetra black tips, cat. #9000-0764 Example B1.2 Method
# HEK293/TRPML1-PM clone A5 cells were trypsinized from flasks, counted, then diluted in media to 15,000 cells per 25 μL, and seeded into a black, 384-well viewplate, and cultured overnight.
# One vial of calcium 6 dye was diluted with 10 mL of assay buffer (HBSS+20 mM HEPES pH 7.4) and 25 μL of the dilution was added per well to the cells.
# After incubating for 2 hours at 37° C., the plate was moved to the FLIPR in the read position.
# The compounds were diluted in EMEM with 0.125% FBS to 5× concentration and loaded in a 384-well plate according to the desired plate map for the assay, including DMSO alone and carbachol controls, then the plate was moved to the FLIPR in the source 2 position.
# A box of tips was placed in the source 1 position within the FLIPR to complete the assay set up.
# Once the run was started, an initial baseline fluorescent measurement was performed for 10 seconds (470-495 nm excitation and 515-575 nm emission) prior to adding the compounds.
# 12.5 μL of 5× test compound, DMSO alone, or carbachol were added via the FLIPR and real-time fluorescence measurements were performed for an additional 170 seconds with 1 read per second.
# The data was normalized to baseline by calculating maximum fluorescence minus minimum fluorescence and plotted as response (fold) over the baseline versus log ([…] concentration). The EC50 was determined using a 4-parameter logistic curve fit in Graphpad Prism 9.
# TRPML1, sequence (Q9GZU1 17-572 limits assumed): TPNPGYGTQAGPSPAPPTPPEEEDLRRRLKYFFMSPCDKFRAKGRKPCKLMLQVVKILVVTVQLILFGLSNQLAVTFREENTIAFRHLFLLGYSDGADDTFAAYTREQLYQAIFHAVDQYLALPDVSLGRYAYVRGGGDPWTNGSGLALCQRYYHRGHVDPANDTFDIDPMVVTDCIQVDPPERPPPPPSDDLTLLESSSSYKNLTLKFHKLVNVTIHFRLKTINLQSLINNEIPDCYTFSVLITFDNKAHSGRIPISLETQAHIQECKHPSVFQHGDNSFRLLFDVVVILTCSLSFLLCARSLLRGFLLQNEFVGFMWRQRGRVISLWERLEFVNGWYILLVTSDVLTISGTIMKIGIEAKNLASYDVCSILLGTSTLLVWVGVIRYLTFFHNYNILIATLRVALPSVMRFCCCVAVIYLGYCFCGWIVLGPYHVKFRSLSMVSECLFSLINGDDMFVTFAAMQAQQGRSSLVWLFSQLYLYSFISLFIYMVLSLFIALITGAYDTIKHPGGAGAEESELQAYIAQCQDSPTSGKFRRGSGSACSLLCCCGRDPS
row,SMILES,pEC50
1,"CN(c1ccc(Cl)cc1NS(=O)(=O)c1ccc(S(=O)(=O)N(C)C)cc1)C1CCCCC1 [Compound 1, N1-(5-chloro-2-(cyclohexyl(methyl)amino)phenyl)-N4,N4-dimethylbenzene-1,4-disulfonamide]",5.91
2,"CN(c1cc(Cl)ccc1NS(=O)(=O)c1ccc(S(=O)(=O)N(C)C)cc1)C1CCCCC1 [Compound 2, N1-(4-chloro-2-(cyclohexyl(methyl)amino)phenyl)-N4,N4-dimethylbenzene-1,4-disulfonamide]",5.52
3,"CN(c1cccc(F)c1NS(=O)(=O)c1ccc(S(=O)(=O)N(C)C)cc1)C1CCCCC1 [Compound 3, N1-(2-(cyclohexyl(methyl)amino)-6-fluorophenyl)-N4,N4-dimethylbenzene-1,4-disulfonamide]",5.32
4,"CN(c1cc(F)ccc1NS(=O)(=O)c1ccc(S(=O)(=O)N(C)C)cc1)C1CCCCC1 [Compound 4, N1-(2-(cyclohexyl(methyl)amino)-4-fluorophenyl)-N4,N4-dimethylbenzene-1,4-disulfonamide]",5.66
5,"CN(Cc1cnn(C2CC2)c1)c1ccccc1NS(=O)(=O)c1ccc(S(=O)(=O)N(C)C)cc1 [Compound 5, N1-(2-(((1-cyclopropyl-1H-pyrazol-4-yl)methyl)(methyl)amino)phenyl)-N4,N4-dimethylbenzene-1,4-disulfonamide]",5.61
6,"CC(C)CN(C)c1ccccc1NS(=O)(=O)c1ccc(S(=O)(=O)N(C)C)cc1 [Compound 7, N1-(2-(isobutyl(methyl)amino)phenyl)-N4,N4-dimethylbenzene-1,4-disulfonamide]",6.29
7,"CN(Cc1ccncc1)c1ccccc1NS(=O)(=O)c1ccc(S(=O)(=O)N(C)C)cc1 [Compound 8, N1,N1-dimethyl-N4-(2-(methyl(pyridin-4-ylmethyl)amino)phenyl) benzene-1,4-disulfonamide]",5.43
8,"CCN(C)c1ccccc1NS(=O)(=O)c1ccc(S(=O)(=O)N(C)C)cc1 [Compound 9, N1-(2-(ethyl(methyl)amino)phenyl)-N4,N4-dimethylbenzene-1,4-disulfonamide]",5.46
9,"CN(CC1CCOCC1)c1ccccc1NS(=O)(=O)c1ccc(S(=O)(=O)N(C)C)cc1 [Compound 11, N1,N1-dimethyl-N4-(2-(methyl((tetrahydro-2H-pyran-4-yl)methyl)amino)phenyl)benzene-1,4-disulfonamide]",5.68
10,"CN(CCN1CCOCC1)c1ccccc1NS(=O)(=O)c1ccc(S(=O)(=O)N(C)C)cc1 [Compound 15, N1,N1-dimethyl-N4-(2-(methyl(2-morpholinoethyl)amino)phenyl) benzene-1,4-disulfonamide]",< 5.00
11,"CCCN(C)c1ccccc1NS(=O)(=O)c1ccc(S(=O)(=O)N(C)C)cc1 [Compound 16, N1,N1-dimethyl-N4-(2-(methyl(propyl)amino)phenyl)benzene-1,4-disulfonamide]",5.63
12,"CN(c1ccccc1NS(=O)(=O)c1ccc(S(=O)(=O)N(C)C)cc1)C1CCOCC1 [Compound 19, N1,N1-dimethyl-N4-(2-(methyl(tetrahydro-2H-pyran-4-yl)amino)phenyl)benzene-1,4-disulfonamide]",5.69
13,"CN1CCC(N(C)c2ccccc2NS(=O)(=O)c2ccc(S(=O)(=O)N(C)C)cc2)CC1 [Compound 21, N1,N1-dimethyl-N4-(2-(methyl(1-methylpiperidin-4-yl)amino)phenyl)benzene-1,4-disulfonamide]",< 5.00
14,"CN(c1ccccc1NS(=O)(=O)c1ccc(S(=O)(=O)N(C)C)cc1)C1CCNCC1 [Compound 22, N1,N1-dimethyl-N4-(2-(methyl(piperidin-4-yl)amino)phenyl)benzene-1,4-disulfonamide]",< 5.00
15,"CN(c1ccccc1)c1ccccc1NS(=O)(=O)c1ccc(S(=O)(=O)N(C)C)cc1 [Compound 27, N1,N1-dimethyl-N4-(2-(methyl(phenyl)amino)phenyl)benzene-1,4-disulfonamide]",< 5.00
16,"CC(C)n1cnc(CN(C)c2ccccc2NS(=O)(=O)c2ccc(S(=O)(=O)N(C)C)cc2)c1 [Compound 31, N1-(2-(((1-isopropyl-1H-imidazol-4-yl)methyl)(methyl)amino)phenyl)-N4,N4-dimethylbenzene-1,4-disulfonamide]",5.05
17,"CN(CC1CCC(C)(C)OC1)c1ccccc1NS(=O)(=O)c1ccc(S(=O)(=O)N(C)C)cc1 (stereo not drawn) [Compound 32, N1-(2-(((6,6-dimethyltetrahydro-2H-pyran-3-yl)methyl)(methyl)amino)phenyl)-N4,N4-dimethylbenzene-1,4-disulfonamide]",6.09

row,SMILES,pEC50
1,"COCCCCN(C)c1ccccc1NS(=O)(=O)c1ccc(S(=O)(=O)N(C)C)cc1 [Compound 33, N1-(2-((4-methoxybutyl)(methyl)amino)phenyl)-N4,N4-dimethylbenzene-1,4-disulfonamide]",5.56
2,"COCCCN(C)c1ccccc1NS(=O)(=O)c1ccc(S(=O)(=O)N(C)C)cc1 [Compound 34, N1-(2-((3-methoxypropyl)(methyl)amino)phenyl)-N4,N4-dimethylbenzene-1,4-disulfonamide]",5.49
3,"Cc1ccc(NS(=O)(=O)c2ccc(S(=O)(=O)N(C)C)cc2)c(N(C)C2CCCCC2)c1 [Compound 35, N1-(2-(cyclohexyl(methyl)amino)-4-methylphenyl)-N4,N4-dimethylbenzene-1,4-disulfonamide]",6.48
4,"Cc1cccc(N(C)C2CCCCC2)c1NS(=O)(=O)c1ccc(S(=O)(=O)N(C)C)cc1 [Compound 36, N1-(2-(cyclohexyl(methyl)amino)-6-methylphenyl)-N4,N4-dimethylbenzene-1,4-disulfonamide]",5.66
5,"CN(c1ccccc1NS(=O)(=O)c1ccc(S(=O)(=O)N(C)C)cc1)C1CCC1 [Compound 37, N1-(2-(cyclobutyl(methyl)amino)phenyl)-N4,N4-dimethylbenzene-1,4-disulfonamide]",6.12
6,"CN(c1c(Cl)cccc1NS(=O)(=O)c1ccc(S(=O)(=O)N(C)C)cc1)C1CCCCC1 [Compound 38, N1-(3-chloro-2-(cyclohexyl(methyl)amino)phenyl)-N4,N4-dimethylbenzene-1,4-disulfonamide]",6.62
7,"COCC1(C)CCC(CN(C)c2ccccc2NS(=O)(=O)c2ccc(S(=O)(=O)N(C)C)cc2)CC1 (stereo not drawn) [Compound 39, N1-(2-(((4-(methoxymethyl)-4-methylcyclohexyl)methyl)(methyl)amino)phenyl)-N4,N4-dimethylbenzene-1,4-disulfonamide]",6.38
8,"CN(c1ccccc1NS(=O)(=O)c1ccc(S(=O)(=O)N(C)C)cc1)C1CC(F)(F)C1 [Compound 40, N1-(2-((3,3-difluorocyclobutyl) (methyl)amino)phenyl)-N4,N4-dimethylbenzene-1,4-disulfonamide]",6.39
9,"CN(c1ccccc1NS(=O)(=O)c1ccc(S(=O)(=O)N(C)C)cc1)C1CCC(F)(F)CC1 [Compound 41, N1-(2-((4,4-difluorocyclohexyl) (methyl)amino)phenyl)-N4,N4-dimethylbenzene-1,4-disulfonamide]",6.57
10,"COCC1(C)CCC(N(C)c2ccccc2NS(=O)(=O)c2ccc(S(=O)(=O)N(C)C)cc2)CC1 (stereo not drawn) [Compound 42, N1-(2-((4-(methoxymethyl)-4-methylcyclohexyl)(methyl)amino)phenyl)-N4,N4-dimethylbenzene-1,4-disulfonamide]",6.09
11,"CN(Cc1ccc(F)cn1)c1ccccc1NS(=O)(=O)c1ccc(S(=O)(=O)N(C)C)cc1 [Compound 43, N1-(2-(((5-fluoropyridin-2-yl)methyl)(methyl)amino)phenyl)-N4,N4-dimethylbenzene-1,4-disulfonamide]",6.06
12,"CCn1cnc(CN(C)c2ccccc2NS(=O)(=O)c2ccc(S(=O)(=O)N(C)C)cc2)c1 [Compound 44, N1-(2-(((1-ethyl-1H-imidazol-4-yl)methyl)(methyl)amino)phenyl)-N4,N4-dimethylbenzene-1,4-disulfonamide]",< 5.00
13,"CN(Cc1cscn1)c1ccccc1NS(=O)(=O)c1ccc(S(=O)(=O)N(C)C)cc1 [Compound 45, N1,N1-dimethyl-N4-(2-(methyl(thiazol-4-ylmethyl)amino)phenyl)benzene-1,4-disulfonamide]",5.69
14,"CN(Cc1ccccn1)c1ccccc1NS(=O)(=O)c1ccc(S(=O)(=O)N(C)C)cc1 [Compound 46, N1,N1-dimethyl-N4-(2-(methyl(pyridin-2-ylmethyl)amino)phenyl)benzene-1,4-disulfonamide]",5.59
15,"CN(CC1COC1)c1ccccc1NS(=O)(=O)c1ccc(S(=O)(=O)N(C)C)cc1 [Compound 47, N1,N1-dimethyl-N4-(2-(methyl(oxetan-3-ylmethyl)amino)phenyl)benzene-1,4-disulfonamide]",< 5.00
16,"Cc1cc(CN(C)c2ccccc2NS(=O)(=O)c2ccc(S(=O)(=O)N(C)C)cc2)cc(C)n1 [Compound 48, N1-(2-(((2,6-dimethylpyridin-4-yl)methyl)(methyl)amino)phenyl)-N4,N4-dimethylbenzene-1,4-disulfonamide]",5.13
